Reference: PubChem BioAssay (NCI)
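Grown in 96-well plates, cells were treated for 48 hours with each compound at five concentrations. Insufficient inhibition: endpoint recorded as highest concentration tested. TGI marks complete inhibition of growth.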

What was measured:
Experiment in all cases: NCI anticancer screen, dose series, 48 h
786-0 renal = system: 786-0 renal
A498 renal = system: A498 renal
A549 NSCLC = system: A549 NSCLC
ACHN renal = system: ACHN renal
BT-549 breast = system: BT-549 breast
CAKI-1 renal = system: CAKI-1 renal
CCRF-CEM leukemia = system: CCRF-CEM leukemia
COLO 205 colon = system: COLO 205 colon
DU-145 prostate = system: DU-145 prostate
EKVX NSCLC = system: EKVX NSCLC
HCT-116 colon = system: HCT-116 colon
HCT-15 colon = system: HCT-15 colon
HL-60(TB) leukemia = system: HL-60(TB) leukemia
HOP-62 NSCLC = system: HOP-62 NSCLC
HOP-92 NSCLC = system: HOP-92 NSCLC
HS 578T breast = system: HS 578T breast
HT29 colon = system: HT29 colon
IGROV1 ovarian = system: IGROV1 ovarian
K-562 leukemia = system: K-562 leukemia
KM12 colon = system: KM12 colon
LOX IMVI melanoma = system: LOX IMVI melanoma
M14 melanoma = system: M14 melanoma
MALME-3M melanoma = system: MALME-3M melanoma
MCF7 breast = system: MCF7 breast
MDA-MB-231 breast = system: MDA-MB-231 breast
MDA-MB-435 = system: MDA-MB-435
MDA-N = system: MDA-N
MOLT-4 leukemia = system: MOLT-4 leukemia
NCI-H226 lung = system: NCI-H226 lung
NCI-H23 lung = system: NCI-H23 lung
NCI-H460 lung = system: NCI-H460 lung
NCI-H522 lung = system: NCI-H522 lung
NCI/ADR-RES ovarian = system: NCI/ADR-RES ovarian
OVCAR-3 ovarian = system: OVCAR-3 ovarian
OVCAR-4 ovarian = system: OVCAR-4 ovarian
OVCAR-5 ovarian = system: OVCAR-5 ovarian
OVCAR-8 ovarian = system: OVCAR-8 ovarian
PC-3 prostate = system: PC-3 prostate
RPMI-8226 leukemia = system: RPMI-8226 leukemia
RXF 393 renal = system: RXF 393 renal
SF-268 CNS = system: SF-268 CNS
SF-295 CNS = system: SF-295 CNS
SF-539 CNS = system: SF-539 CNS
SK-MEL-2 melanoma = system: SK-MEL-2 melanoma
SK-MEL-5 melanoma = system: SK-MEL-5 melanoma
SK-OV-3 ovarian = system: SK-OV-3 ovarian
SN12C renal = system: SN12C renal
SNB-19 CNS = system: SNB-19 CNS
SNB-75 CNS = system: SNB-75 CNS
SR leukemia = system: SR leukemia
SW-620 colon = system: SW-620 colon
T-47D breast = system: T-47D breast
TK-10 renal = system: TK-10 renal
U251 CNS = system: U251 CNS
UACC-257 melanoma = system: UACC-257 melanoma
UACC-62 melanoma = system: UACC-62 melanoma
UO-31 renal = system: UO-31 renal
HCC-2998 colon = system: HCC-2998 colon
SK-MEL-28 melanoma = system: SK-MEL-28 melanoma

In the case of `Cn1c2cn[nH]c(=O)c2c2ccc3ccccc3c21`, the TGI (786-0 renal) is reported as 42.1 µM, the TGI (A498 renal) is reported as 80 µM and the TGI (A549 NSCLC) is reported as greater than 100 µM. It also gave a TGI (ACHN renal) of 45.9 µM, a TGI (BT-549 breast) greater than 100 µM and a TGI (CAKI-1 renal) greater than 100 µM. For the same compound, the TGI (CCRF-CEM leukemia) was greater than 100 µM, the TGI (COLO 205 colon) was greater than 100 µM and the TGI (DU-145 prostate) was greater than 100 µM. It also gave a TGI (EKVX NSCLC) of 75.3 µM, a TGI (HCT-116 colon) greater than 100 µM and a TGI (HCT-15 colon) greater than 100 µM. The TGI (HL-60(TB) leukemia) was greater than 100 µM, the TGI (HOP-62 NSCLC) was 31.8 µM and the TGI (HOP-92 NSCLC) was 60.8 µM. The TGI (HS 578T breast) was 53.1 µM, the TGI (HT29 colon) was greater than 100 µM and the TGI (IGROV1 ovarian) was 32.2 µM. It also gave a TGI (K-562 leukemia) greater than 100 µM, a TGI (KM12 colon) greater than 100 µM and a TGI (LOX IMVI melanoma) of 53.8 µM. For the same compound, the TGI (M14 melanoma) was greater than 100 µM, the TGI (MALME-3M melanoma) was greater than 100 µM and the TGI (MCF7 breast) was greater than 100 µM. The TGI (MDA-MB-231 breast) was 57.6 µM, the TGI (MDA-MB-435) was greater than 100 µM and the TGI (MDA-N) was greater than 100 µM. For the same compound, the TGI (MOLT-4 leukemia) was greater than 100 µM, the TGI (NCI-H226 lung) was greater than 100 µM and the TGI (NCI-H23 lung) was 67.2 µM. For the same compound, the TGI (NCI-H460 lung) was greater than 100 µM, the TGI (NCI-H522 lung) was 59.5 µM and the TGI (NCI/ADR-RES ovarian) was greater than 100 µM. The TGI (OVCAR-3 ovarian) was greater than 100 µM, the TGI (OVCAR-4 ovarian) was greater than 100 µM and the TGI (OVCAR-5 ovarian) was greater than 100 µM. It also gave a TGI (OVCAR-8 ovarian) greater than 100 µM, a TGI (PC-3 prostate) greater than 100 µM and a TGI (RPMI-8226 leukemia) greater than 100 µM. For the same compound, the TGI (RXF 393 renal) was 62.9 µM, the TGI (SF-268 CNS) was 97.2 µM and the TGI (SF-295 CNS) was 63.4 µM. The TGI (SF-539 CNS) was greater than 100 µM, the TGI (SK-MEL-2 melanoma) was 46.7 µM and the TGI (SK-MEL-5 melanoma) was greater than 100 µM. For the same compound, the TGI (SK-OV-3 ovarian) was greater than 100 µM, the TGI (SN12C renal) was greater than 100 µM and the TGI (SNB-19 CNS) was greater than 100 µM. The TGI (SNB-75 CNS) was 38.3 µM, the TGI (SR leukemia) was greater than 100 µM and the TGI (SW-620 colon) was greater than 100 µM. The TGI (T-47D breast) was greater than 100 µM, the TGI (TK-10 renal) was greater than 100 µM and the TGI (U251 CNS) was 47.1 µM. It also gave a TGI (UACC-257 melanoma) greater than 100 µM, a TGI (UACC-62 melanoma) greater than 100 µM and a TGI (UO-31 renal) of 70.6 µM.

`CN1CCN(Cc2nc3c(s2)CCc2sccc2-3)CC1` gave a TGI (786-0 renal) greater than 100 µM, a TGI (A498 renal) of 83.4 µM and a TGI (A549 NSCLC) greater than 100 µM. For the same compound, the TGI (ACHN renal) was greater than 100 µM, the TGI (BT-549 breast) was greater than 100 µM and the TGI (CAKI-1 renal) was greater than 100 µM. For the same compound, the TGI (CCRF-CEM leukemia) was greater than 100 µM, the TGI (COLO 205 colon) was greater than 100 µM and the TGI (DU-145 prostate) was greater than 100 µM. The TGI (EKVX NSCLC) was greater than 100 µM, the TGI (HCC-2998 colon) was greater than 100 µM and the TGI (HCT-116 colon) was greater than 100 µM. For the same compound, the TGI (HCT-15 colon) was greater than 100 µM, the TGI (HOP-62 NSCLC) was greater than 100 µM and the TGI (HS 578T breast) was greater than 100 µM. The TGI (HT29 colon) was greater than 100 µM, the TGI (IGROV1 ovarian) was greater than 100 µM and the TGI (K-562 leukemia) was greater than 100 µM. It also gave a TGI (KM12 colon) greater than 100 µM, a TGI (M14 melanoma) greater than 100 µM and a TGI (MALME-3M melanoma) greater than 100 µM. For the same compound, the TGI (MCF7 breast) was greater than 100 µM, the TGI (MDA-MB-231 breast) was greater than 100 µM and the TGI (MDA-MB-435) was greater than 100 µM. The TGI (MDA-N) was greater than 100 µM, the TGI (MOLT-4 leukemia) was greater than 100 µM and the TGI (NCI-H226 lung) was greater than 100 µM. The TGI (NCI-H23 lung) was greater than 100 µM, the TGI (NCI-H460 lung) was greater than 100 µM and the TGI (NCI-H522 lung) was greater than 100 µM. For the same compound, the TGI (NCI/ADR-RES ovarian) was greater than 100 µM, the TGI (OVCAR-3 ovarian) was greater than 100 µM and the TGI (OVCAR-4 ovarian) was greater than 100 µM. It also gave a TGI (OVCAR-5 ovarian) greater than 100 µM, a TGI (OVCAR-8 ovarian) greater than 100 µM and a TGI (PC-3 prostate) greater than 100 µM. The TGI (RPMI-8226 leukemia) was greater than 100 µM, the TGI (RXF 393 renal) was greater than 100 µM and the TGI (SF-268 CNS) was greater than 100 µM. The TGI (SF-295 CNS) was greater than 100 µM, the TGI (SK-MEL-2 melanoma) was greater than 100 µM and the TGI (SK-MEL-28 melanoma) was 73 µM. For the same compound, the TGI (SK-MEL-5 melanoma) was greater than 100 µM, the TGI (SK-OV-3 ovarian) was greater than 100 µM and the TGI (SN12C renal) was greater than 100 µM. It also gave a TGI (SNB-19 CNS) greater than 100 µM, a TGI (SNB-75 CNS) greater than 100 µM and a TGI (SR leukemia) of 99.7 µM. The TGI (SW-620 colon) was greater than 100 µM, the TGI (T-47D breast) was greater than 100 µM and the TGI (TK-10 renal) was greater than 100 µM. The TGI (U251 CNS) was greater than 100 µM, the TGI (UACC-257 melanoma) was greater than 100 µM and the TGI (UACC-62 melanoma) was 57 µM. It also gave a TGI (UO-31 renal) greater than 100 µM.

`CC1(C)CCCCCCCCCC2CC2CCC(C)(C)C1=O` (stereo not given) was tested, and the TGI (786-0 renal) was 31.5 µM, the TGI (A498 renal) was greater than 100 µM and the TGI (A549 NSCLC) was 57.5 µM. For the same compound, the TGI (ACHN renal) was 33.4 µM, the TGI (BT-549 breast) was 87.4 µM and the TGI (CAKI-1 renal) was greater than 100 µM. For the same compound, the TGI (CCRF-CEM leukemia) was 53.3 µM, the TGI (COLO 205 colon) was 32.7 µM and the TGI (DU-145 prostate) was 40.9 µM. The TGI (EKVX NSCLC) was 39.3 µM, the TGI (HCT-116 colon) was 31.8 µM and the TGI (HCT-15 colon) was 30.1 µM. For the same compound, the TGI (HL-60(TB) leukemia) was 49.1 µM, the TGI (HOP-62 NSCLC) was 46 µM and the TGI (HOP-92 NSCLC) was 62.7 µM. The TGI (HS 578T breast) was 82.3 µM, the TGI (HT29 colon) was 39.6 µM and the TGI (IGROV1 ovarian) was greater than 100 µM. It also gave a TGI (K-562 leukemia) of 32.6 µM, a TGI (KM12 colon) of 34.9 µM and a TGI (LOX IMVI melanoma) of 34.9 µM. The TGI (M14 melanoma) was 48.6 µM, the TGI (MALME-3M melanoma) was 49 µM and the TGI (MCF7 breast) was 30 µM. The TGI (MDA-MB-231 breast) was 43.9 µM, the TGI (MDA-MB-435) was 55.5 µM and the TGI (MDA-N) was greater than 100 µM. For the same compound, the TGI (MOLT-4 leukemia) was 80.1 µM, the TGI (NCI-H226 lung) was 31.2 µM and the TGI (NCI-H23 lung) was greater than 100 µM. The TGI (NCI-H460 lung) was 46 µM, the TGI (NCI-H522 lung) was 30 µM and the TGI (NCI/ADR-RES ovarian) was 44.3 µM. It also gave a TGI (OVCAR-3 ovarian) of 25.9 µM, a TGI (OVCAR-4 ovarian) greater than 100 µM and a TGI (OVCAR-5 ovarian) of 40 µM. It also gave a TGI (OVCAR-8 ovarian) of 74.5 µM, a TGI (PC-3 prostate) of 70.9 µM and a TGI (RPMI-8226 leukemia) of 75.9 µM. For the same compound, the TGI (RXF 393 renal) was 29.3 µM, the TGI (SF-268 CNS) was 43.1 µM and the TGI (SF-295 CNS) was 33.9 µM. The TGI (SF-539 CNS) was 44.3 µM, the TGI (SK-MEL-2 melanoma) was 34.5 µM and the TGI (SK-MEL-28 melanoma) was 72.8 µM. For the same compound, the TGI (SK-MEL-5 melanoma) was 43.2 µM, the TGI (SK-OV-3 ovarian) was greater than 100 µM and the TGI (SN12C renal) was 35.7 µM. The TGI (SNB-19 CNS) was 88.3 µM, the TGI (SNB-75 CNS) was 71.1 µM and the TGI (SR leukemia) was 53.5 µM. It also gave a TGI (SW-620 colon) greater than 100 µM, a TGI (T-47D breast) of 47.1 µM and a TGI (TK-10 renal) of 46 µM. For the same compound, the TGI (U251 CNS) was 33 µM, the TGI (UACC-257 melanoma) was 46.2 µM and the TGI (UACC-62 melanoma) was greater than 100 µM. The TGI (UO-31 renal) was 36.9 µM.
